Assay results as given in PubChem BioAssay AID264 (DTP/NCI, 2004).
Values joined by “and” are separate entries in the source; they are usually repeats but may differ in a detail not shown here. Equal values may be shown once. Records with an inconclusive call do not appear.

Test system: nude mice, LX-1 lung xenograft intrarenal, tumor weight T/C
Experiment: NCI In Vivo Anticancer Drug Screen. Data for tumor model Human Lung LX-1 Xenograft (intrarenal inoculation) in NU/NU Swiss (nude) mice
Details: endpoint: mean tumor weight change, higher = larger tumour
Summary of the method: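 Antitumor effect is expressed as a ratio: the mean tumor measurement of the drug-treated group relative to that of the vehicle-dosed control group.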

[1] = dose: 75.0 mg/kg/injection, schedule: Q04DX003 (sc), vehicle: saline with Tween-80
[2] = dose: 150.0 mg/kg/injection, schedule: Q04DX003 (sc), vehicle: saline with Tween-80
[3] = dose: 300.0 mg/kg/injection, schedule: Q04DX003 (sc), vehicle: saline with Tween-80
[4] = dose: 25.0 mg/kg/injection, schedule: Q01DX010 (sc), vehicle: saline
[5] = dose: 100.0 mg/kg/injection, schedule: Q01DX010 (sc), vehicle: saline
[6] = dose: 200.0 mg/kg/injection, schedule: Q01DX010 (sc), vehicle: saline
[7] = dose: 12.5 mg/kg/injection, schedule: Q01DX010 (sc), vehicle: saline
[8] = dose: 600.0 mg/kg/injection, schedule: Q04DX003 (sc), vehicle: saline with Tween-80
[9] = dose: 1200.0 mg/kg/injection, schedule: Q04DX003 (sc), vehicle: saline with Tween-80
[10] = dose: 100.0 mg/kg/injection, schedule: Q04DX003 (sc), vehicle: saline with Tween-80
[11] = dose: 200.0 mg/kg/injection, schedule: Q04DX003 (sc), vehicle: saline with Tween-80
[12] = dose: 400.0 mg/kg/injection, schedule: Q04DX003 (sc), vehicle: saline with Tween-80
[13] = dose: 50.0 mg/kg/injection, schedule: Q01DX010 (sc), vehicle: saline
[14] = dose: 600.0 mg/kg/injection, schedule: Q04DX003 (sc), vehicle: saline

SMILES: O=C(O)C1CC1.[Ag]
- T/C (dose: 37.5 mg/kg/injection, schedule: Q04DX003 (sc), vehicle: saline with Tween-80): 63 % of control
- T/C [1]: 57 % of control
- T/C [2]: 62 % of control
- T/C [3]: 54 % of control

SMILES: O=C(Nc1nncs1)c1ccncc1
- T/C (dose: 50.0 mg/kg/injection, schedule: Q01DX010 (sc), vehicle: saline with Tween-80): 115 % of control
- T/C (dose: 100.0 mg/kg/injection, schedule: Q01DX010 (sc), vehicle: saline with Tween-80): 91 % of control

SMILES: CC1(C)OC(=O)N(CO)C1=O
- T/C [4]: 51 % of control
- T/C [5]: 116 % of control
- T/C [6]: 110 % of control

SMILES: CC1(C)N=C(N)N=C(N)N1c1ccc(CCCCc2ccc(S(=O)(=O)F)cc2Cl)c(Cl)c1
- T/C [7]: 78 % of control

SMILES: C[C@H](CCC[C@H](C)OS(=O)(=O)c1ccccc1)OS(=O)(=O)c1ccccc1
- T/C [2]: 87 % of control
- T/C [3]: 45 % of control

SMILES: COc1cc(C2c3cc4c(cc3C(O)C(CO)C2CO)OCO4)cc(OC)c1OC (stereo not drawn)
- T/C [3]: 103 % of control
- T/C [8]: 95 % of control
- T/C [9]: 90 % of control
- T/C (dose: 2400.0 mg/kg/injection, schedule: Q04DX003 (sc), vehicle: saline with Tween-80): 38 % of control

SMILES: CCN1/C(=C/C=C/C=C/c2sc3ccccc3[n+]2CC)Sc2ccccc21
- T/C (dose: 1.5 mg/kg/injection, schedule: Q04DX003 (sc), vehicle: saline): 57 % of control

SMILES: COC(=O)NC1C(C)OC(OC2C/C=C(/C)C3C=CC4C(OC5CC(OC6CCC(OC7CC(O)C(OC8CCC(O)C(C)O8)C(C)O7)C(C)O6)C(OC(C)=O)C(C)O5)C(C)CC(C)C4C3(C)/C(O)=C3/C(=O)OC4(CC(C=O)=CC(O)C4/C=C\2C)C3=O)CC1(C)[N+](=O)[O-] (stereo not drawn)
- T/C (dose: 12.5 mg/kg/injection, schedule: Q04DX003 (sc), vehicle: other): 63 % of control
- T/C (dose: 25.0 mg/kg/injection, schedule: Q04DX003 (sc), vehicle: other): 75 % of control
- T/C (dose: 50.0 mg/kg/injection, schedule: Q04DX003 (sc), vehicle: other): 100 % of control
- T/C (dose: 100.0 mg/kg/injection, schedule: Q04DX003 (sc), vehicle: other): 93 % of control

SMILES: O=NN(CCCl)C(=O)Oc1ccc(OC(=O)N(CCCl)N=O)cc1
- T/C (dose: 300.0 mg/kg/injection, schedule: Q04DX003 (sc), vehicle: Klucel (hydroxypropylcellulose) (HPC)): 110 % of control
- T/C (dose: 600.0 mg/kg/injection, schedule: Q04DX003 (sc), vehicle: Klucel (hydroxypropylcellulose) (HPC)): 70 % of control
- T/C (dose: 1200.0 mg/kg/injection, schedule: Q04DX003 (sc), vehicle: Klucel (hydroxypropylcellulose) (HPC)): 49 % of control

SMILES: Nc1cc2[nH]cnc2c(=O)[nH]1
- T/C [4]: 25 % of control
- T/C [6]: 16 % of control and 18 % of control

SMILES: CCCCCCCC(=O)OCC(=O)[C@]1(O)Cc2c(O)c3c(c(O)c2[C@@H](OC2CC(N)C(O)C(C)O2)C1)C(=O)c1c(OC)cccc1C3=O (stereo partly drawn)
- T/C (dose: 2.0 mg/kg/injection, schedule: Q01DX010 (sc), vehicle: saline): 104 % of control
- T/C (dose: 4.0 mg/kg/injection, schedule: Q01DX010 (sc), vehicle: saline): 173 % of control

SMILES: CC1(C)COCN1COC1CCCCC1
- T/C [10]: 76 % of control
- T/C [11]: 119 % of control
- T/C [12]: 68 % of control
- T/C (dose: 800.0 mg/kg/injection, schedule: Q04DX003 (sc), vehicle: saline with Tween-80): 110 % of control

SMILES: CN(C)N=Nc1ccccc1
- T/C (dose: 12.5 mg/kg/injection, schedule: Q01DX010 (sc), vehicle: Klucel (hydroxypropylcellulose) (HPC)): 12 % of control
- T/C (dose: 50.0 mg/kg/injection, schedule: Q01DX010 (sc), vehicle: Klucel (hydroxypropylcellulose) (HPC)): -98 % of control

SMILES: O=C(Nc1ccc(Cl)c(Cl)c1)Nc1c(Oc2ccc(Cl)c(Cl)c2)ccc(Cl)c1S(=O)(=O)O
- T/C (dose: 100.0 mg/kg/injection, schedule: Q01DX010 (sc), vehicle: Klucel (hydroxypropylcellulose) (HPC)): 43 % of control
- T/C (dose: 200.0 mg/kg/injection, schedule: Q01DX010 (sc), vehicle: Klucel (hydroxypropylcellulose) (HPC)): 50 % of control
- T/C (dose: 400.0 mg/kg/injection, schedule: Q01DX010 (sc), vehicle: Klucel (hydroxypropylcellulose) (HPC)): 69 % of control
- T/C (dose: 800.0 mg/kg/injection, schedule: Q01DX010 (sc), vehicle: Klucel (hydroxypropylcellulose) (HPC)): 60 % of control

SMILES: COc1cccc2c1C(=O)c1c(O)c3c(c(O)c1C2=O)C[C@@](O)(C(=O)CO)C[C@@H]3OC1CC(N)C(OC)C(C)O1 (stereo partly drawn)
- T/C (dose: 0.75 mg/kg/injection, schedule: Q01DX010 (sc), vehicle: saline): 29 % of control
- T/C (dose: 3.0 mg/kg/injection, schedule: Q01DX010 (sc), vehicle: saline): 14 % of control

SMILES: [CH3][Sn]([CH3])([Cl])[S]CCN
- T/C (dose: 18.75 mg/kg/injection, schedule: Q04DX003 (sc), vehicle: saline): 62 % of control
- T/C (dose: 37.5 mg/kg/injection, schedule: Q04DX003 (sc), vehicle: saline): 95 % of control
- T/C (dose: 75.0 mg/kg/injection, schedule: Q04DX003 (sc), vehicle: saline): 82 % of control

SMILES: Cc1oc2c(C)c3oc(=O)cc(C)c3cc2c1CCl
- T/C [2]: 82 % of control
- T/C [3]: 95 % of control
- T/C [8]: 60 % of control
- T/C [9]: 76 % of control

SMILES: Cc1c2cc[n+](C)cc2c(C)c2c1[nH]c1ccc(O)cc12
- T/C (dose: 1.5 mg/kg/injection, schedule: Q04DX003 (sc), vehicle: water): 151 % of control

SMILES: Clc1ccc2nnnn2n1
- T/C (dose: 50.0 mg/kg/injection, schedule: Q04DX003 (sc), vehicle: saline with Tween-80): 72 % of control
- T/C [10]: 88 % of control
- T/C [11]: 85 % of control
- T/C [12]: 93 % of control

SMILES: COc1cc(C)c2c(c1C=O)Oc1c(c(C)c(O)c3c1C(O)OC3=O)OC2=O (stereo not drawn)
- T/C [7]: 95 % of control
- T/C [4]: 103 % of control
- T/C [13]: 59 % of control
- T/C [5]: 32 % of control

SMILES: COC(=O)Nc1ccc(Cc2ccc(NC(=O)OC)cc2)cc1
- T/C (dose: 800.0 mg/kg/injection, schedule: Q01DX010 (sc), vehicle: saline with Tween-80): 68 % of control

SMILES: C[N+](C)(C)c1ncnc2nc[nH]c12
- T/C [13]: 78 % of control
- T/C [5]: 116 % of control
- T/C [6]: 58 % of control

SMILES: CCN(CC)CCC(=O)c1ccccc1
- T/C [2]: 81 % of control

SMILES: C[CH2][Pb]([CH2]C)([CH2]C)[O]C(=O)COc1ccccc1
- T/C (dose: 9.0 mg/kg/injection, schedule: Q04DX003 (sc), vehicle: saline with Tween-80): 47 % of control
- T/C (dose: 18.0 mg/kg/injection, schedule: Q04DX003 (sc), vehicle: saline with Tween-80): 47 % of control

SMILES: CC(=O)N(C)C
- T/C (dose: 450.0 mg/kg/injection, schedule: Q01DX010 (sc), vehicle: saline): 70 % of control

SMILES: Cn1cnc([N+](=O)[O-])c1SCC(=O)O
- T/C [5]: 71 % of control
- T/C [6]: 83 % of control
- T/C (dose: 400.0 mg/kg/injection, schedule: Q01DX010 (sc), vehicle: saline): 103 % of control
- T/C (dose: 800.0 mg/kg/injection, schedule: Q01DX010 (sc), vehicle: saline): 66 % of control

SMILES: COC1OC(CO)C(O)C(NC(=O)N(C)N=O)C1O (stereo not drawn)
- T/C (dose: 800.0 mg/kg/injection, schedule: Q04DX003 (sc), vehicle: saline): 31 % of control
- T/C (dose: 900.0 mg/kg/injection, schedule: Q04DX003 (sc), vehicle: saline): -100 % of control

SMILES: N#CC(=C1SCS1)[N+](=O)[O-]
- T/C (dose: 6.0 mg/kg/injection, schedule: Q04DX003 (sc), vehicle: saline): 79 % of control
- T/C (dose: 12.0 mg/kg/injection, schedule: Q04DX003 (sc), vehicle: saline): 103 % of control
- T/C (dose: 24.0 mg/kg/injection, schedule: Q04DX003 (sc), vehicle: saline): 109 % of control
- T/C (dose: 48.0 mg/kg/injection, schedule: Q04DX003 (sc), vehicle: saline): 94 % of control

SMILES: O=[n+]1c2ccccc2n([O-])c2ccccc21.[Cl][Ni][Cl]
- T/C (dose: 18.75 mg/kg/injection, schedule: Q04DX003 (sc), vehicle: saline with Tween-80): 122 % of control
- T/C [1]: 150 % of control and 163 % of control
- T/C [2]: 226 % of control

SMILES: ClCCCN1CCCCC1CCl (stereo not drawn)
- T/C (dose: 12.5 mg/kg/injection, schedule: Q04DX003 (sc), vehicle: saline): 88 % of control
- T/C (dose: 25.0 mg/kg/injection, schedule: Q04DX003 (sc), vehicle: saline): 71 % of control

SMILES: OCCOCC(F)(F)F
- T/C (dose: 300.0 mg/kg/injection, schedule: Q04DX003 (sc), vehicle: saline): 78 % of control
- T/C [14]: 95 % of control

SMILES: Cc1cn(C2CC3[O][Sn]([c]4ccccc4)([c]4ccccc4)[O]CC3O2)c(=O)[nH]c1=O (stereo not drawn)
- T/C [14]: 107 % of control
- T/C (dose: 2400.0 mg/kg/injection, schedule: Q04DX003 (sc), vehicle: saline): 47 % of control
